# Laboratory results published in ChEMBL document CHEMBL4145553, “Design, synthesis, and biological evaluation of novel amide and hydrazide based thioether analogs targeting Histone deacteylase (HDAC) enzymes” (Eur J Med Chem, 2018).
# Active and inactive are the calls of the source. The rule behind the calls is not given here.
# How the values were obtained:
# HCT-15 = assay: Growth inhibition of human HCT15 cells assessed as cell growth at 10^-5 M incubated for 48 hrs by sulforhodamine B assay relative to control; format: functional; conditions: HCT-15, 48 h, read-out: Activity
# K562 = assay: Growth inhibition of human K562 cells assessed as cell growth at 10^-7 M incubated for 48 hrs by sulforhodamine B assay relative to control; format: functional; conditions: K562, 48 h, read-out: Activity
# OVCAR-4 = assay: Growth inhibition of human OVCAR4 cells assessed as cell growth at 10^-8 M incubated for 48 hrs by sulforhodamine B assay relative to control; format: functional; conditions: OVCAR-4, 48 h, read-out: Activity
# OVCAR-8 = assay: Growth inhibition of human OVCAR8 cells incubated for 48 hrs by sulforhodamine B assay; format: functional; conditions: OVCAR-8, 48 h
# SK-MEL-28 = assay: Growth inhibition of human SK-MEL-28 cells assessed as cell growth at 10^-8 M incubated for 48 hrs by sulforhodamine B assay relative to control; format: functional; conditions: SK-MEL-28, 48 h, read-out: Activity
# SK-OV-3 [1] = assay: Growth inhibition of human SKOV3 cells assessed as cell growth at 10^-5 M incubated for 48 hrs by sulforhodamine B assay relative to control; format: functional; conditions: SK-OV-3, 48 h, read-out: Activity
# KM12 [2] = assay: Growth inhibition of human KM12 cells assessed as cell growth at 10^-7 M incubated for 48 hrs by sulforhodamine B assay relative to control; format: functional; conditions: KM12, 48 h, read-out: Activity
# SN12C = assay: Growth inhibition of human SN12C cells assessed as cell growth at 10^-8 M incubated for 48 hrs by sulforhodamine B assay relative to control; format: functional; conditions: read-out: Activity
# SF-295 [3] = assay: Growth inhibition of human SF295 cells incubated for 48 hrs by sulforhodamine B assay; format: functional; conditions: SF-295, 48 h
# HOP-62 = assay: Growth inhibition of human HOP62 cells assessed as cell growth at 10^-8 M incubated for 48 hrs by sulforhodamine B assay relative to control; format: functional; conditions: HOP-62, 48 h, read-out: Activity
# NCI-H460 = assay: Growth inhibition of human NCI-H460 cells incubated for 48 hrs by sulforhodamine B assay; format: functional; conditions: NCI-H460, 48 h
# U-251 = assay: Growth inhibition of human U251 cells assessed as cell growth at 10^-6 M incubated for 48 hrs by sulforhodamine B assay relative to control; format: functional; conditions: U-251, 48 h, read-out: Activity
# KM12 [4] = assay: Growth inhibition of human KM12 cells assessed as cell growth at 10^-5 M incubated for 48 hrs by sulforhodamine B assay relative to control; format: functional; conditions: KM12, 48 h, read-out: Activity
# UACC-62 = assay: Growth inhibition of human UACC62 cells incubated for 48 hrs by sulforhodamine B assay; format: functional; conditions: UACC-62, 48 h
# HT-29 = assay: Growth inhibition of human HT-29 cells assessed as cell growth at 10^-4 M incubated for 48 hrs by sulforhodamine B assay relative to control; format: functional; conditions: HT-29, 48 h, read-out: Activity
# EKVX = assay: Growth inhibition of human EKVX cells assessed as cell growth at 10^-5 M incubated for 48 hrs by sulforhodamine B assay relative to control; format: functional; conditions: read-out: Activity
# Histone deacetylase 2 = Histone deacetylase 2 (Homo sapiens, UniProt Q92769); assay: Inhibition of human HDAC2 by ELISA
# Chain of Histone deacetylase 2 (Q92769 whole entry): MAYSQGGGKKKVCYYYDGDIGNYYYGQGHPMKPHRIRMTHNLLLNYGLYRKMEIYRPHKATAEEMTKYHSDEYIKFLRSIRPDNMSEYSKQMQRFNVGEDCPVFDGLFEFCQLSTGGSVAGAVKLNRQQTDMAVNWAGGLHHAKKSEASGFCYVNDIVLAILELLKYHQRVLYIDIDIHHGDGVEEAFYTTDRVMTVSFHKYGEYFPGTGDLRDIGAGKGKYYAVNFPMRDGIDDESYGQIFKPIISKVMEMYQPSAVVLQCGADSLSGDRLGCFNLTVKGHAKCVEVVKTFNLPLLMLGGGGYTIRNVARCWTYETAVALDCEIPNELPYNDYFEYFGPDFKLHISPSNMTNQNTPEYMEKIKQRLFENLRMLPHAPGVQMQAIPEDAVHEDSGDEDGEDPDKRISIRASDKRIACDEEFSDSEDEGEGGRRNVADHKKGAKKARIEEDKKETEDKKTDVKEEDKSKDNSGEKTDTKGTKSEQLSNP
# CAKI-1 = assay: Growth inhibition of human Caki1 cells assessed as cell growth at 10^-6 M incubated for 48 hrs by sulforhodamine B assay relative to control; format: functional; conditions: CAKI-1, 48 h, read-out: Activity
# SK-OV-3 [5] = assay: Growth inhibition of human SKOV3 cells incubated for 48 hrs by sulforhodamine B assay; format: functional; conditions: SK-OV-3, 48 h
# HL-60 = assay: Induction of apoptosis in human HL60 cells assessed as increase in caspase-9 expression by qRT-PCR method; format: functional, cell-based
# UACC-257 = assay: Growth inhibition of human UACC257 cells assessed as cell growth at 10^-8 M incubated for 48 hrs by sulforhodamine B assay relative to control; format: functional; conditions: UACC-257, 48 h, read-out: Activity
# SW-620 = assay: Growth inhibition of human SW620 cells assessed as cell growth at 10^-8 M incubated for 48 hrs by sulforhodamine B assay relative to control; format: functional; conditions: SW-620, 48 h, read-out: Activity
# SF-295 [6] = assay: Growth inhibition of human SF295 cells assessed as cell growth at 10^-8 M incubated for 48 hrs by sulforhodamine B assay relative to control; format: functional; conditions: SF-295, 48 h, read-out: Activity
# MDA-MB-231 = assay: Growth inhibition of human MDA-MB-231 cells assessed as cell growth at 10^-8 M incubated for 48 hrs by sulforhodamine B assay relative to control; format: functional; conditions: MDA-MB-231, 48 h, read-out: Activity
# RPMI-8226 = assay: Growth inhibition of human RPMI8226 cells assessed as cell growth at 10^-4 M incubated for 48 hrs by sulforhodamine B assay relative to control; format: functional; conditions: RPMI-8226, 48 h, read-out: Activity
# OVCAR-3 = assay: Growth inhibition of human OVCAR3 cells assessed as cell growth at 10^-7 M incubated for 48 hrs by sulforhodamine B assay relative to control; format: functional; conditions: OVCAR-3, 48 h, read-out: Activity
# SNB-75 = assay: Growth inhibition of human SNB75 cells assessed as cell growth at 10^-7 M incubated for 48 hrs by sulforhodamine B assay relative to control; format: functional; conditions: SNB-75, 48 h, read-out: Activity
# DU-145 = assay: Growth inhibition of human DU145 cells incubated for 48 hrs by sulforhodamine B assay; format: functional; conditions: DU-145, 48 h
# Histone deacetylase 3 = Histone deacetylase 3 (Homo sapiens, UniProt O15379); assay: Inhibition of HDAC3 (unknown origin) by ELISA
# Chain of Histone deacetylase 3 (O15379 whole entry): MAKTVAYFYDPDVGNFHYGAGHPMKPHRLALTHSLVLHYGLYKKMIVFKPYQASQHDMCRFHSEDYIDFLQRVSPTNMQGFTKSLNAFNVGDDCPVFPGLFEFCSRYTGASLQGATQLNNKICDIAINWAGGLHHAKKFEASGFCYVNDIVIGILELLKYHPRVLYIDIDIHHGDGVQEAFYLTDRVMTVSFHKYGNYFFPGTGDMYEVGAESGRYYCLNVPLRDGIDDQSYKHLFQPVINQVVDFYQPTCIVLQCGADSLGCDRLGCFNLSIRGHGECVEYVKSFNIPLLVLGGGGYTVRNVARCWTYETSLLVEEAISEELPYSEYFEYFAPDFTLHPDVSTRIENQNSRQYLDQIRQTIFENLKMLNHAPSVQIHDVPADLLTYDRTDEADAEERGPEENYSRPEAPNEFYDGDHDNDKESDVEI
# T47D = assay: Growth inhibition of human T47D cells assessed as cell growth at 10^-6 M incubated for 48 hrs by sulforhodamine B assay relative to control; format: functional; conditions: read-out: Activity
# [7] = read-out: LC50 (the source's name)
# [8] = read-out: pLC50 (the source's name) (converted)
smiles,measurement,setting,value
CCS/C(Nc1ccccc1)=C(\C#N)C(=O)N/N=C\c1ccc(Cl)cc1Cl,growth at 10 µM,HCT-15,19%
same,growth at 0.1 µM,K562,90%
same,growth at 0.01 µM,OVCAR-4,98%
same,GI50,OVCAR-8; read-out: GI50,4.81 µM
same,CC50,OVCAR-8; [7],> 100 µM
same,TGI,OVCAR-8; read-out: TGI,> 100 µM
same,GI50,OVCAR-8; read-out: pGI50 (converted),4.79 µM
same,CC50,OVCAR-8; [8],> 100 µM
same,TGI,OVCAR-8; read-out: pTGI,> 100 µM
same,growth at 0.01 µM,SK-MEL-28,104%
same,growth at 10 µM,SK-OV-3 [1],19%
same,growth at 0.1 µM,KM12 [2],101%
same,growth at 0.01 µM,SN12C,97%
same,GI50,SF-295 [3]; read-out: GI50,2.89 µM
same,CC50,SF-295 [3]; [7],> 100 µM
same,TGI,SF-295 [3]; read-out: TGI,> 100 µM
same,GI50,SF-295 [3]; read-out: pGI50 (converted),2.88 µM
same,CC50,SF-295 [3]; [8],> 100 µM
same,TGI,SF-295 [3]; read-out: pTGI,> 100 µM
same,growth at 0.01 µM,HOP-62,93%
same,GI50,NCI-H460; read-out: GI50,3.16 µM
same,LC50,NCI-H460; read-out: LC50,> 100 µM
same,TGI,NCI-H460; read-out: TGI,> 100 µM
same,GI50,NCI-H460; read-out: pGI50 (converted),3.16 µM
same,LC50,NCI-H460; read-out: pLC50 (converted),> 100 µM
same,TGI,NCI-H460; read-out: pTGI (converted),> 100 µM
same,growth at 1 µM,U-251,94%
same,growth at 10 µM,KM12 [4],24%
same,GI50,UACC-62; read-out: GI50,2.74 µM
same,CC50,UACC-62; [7],> 100 µM
same,TGI,UACC-62; read-out: TGI,> 100 µM
same,GI50,UACC-62; read-out: pGI50 (converted),2.75 µM
same,CC50,UACC-62; [8],> 100 µM
same,TGI,UACC-62; read-out: pTGI,> 100 µM
same,growth at 100 µM,HT-29,9%
same,growth at 10 µM,EKVX,35%
same,IC50,Histone deacetylase 2,0.02 µM
same,growth at 1 µM,CAKI-1,67%
same,GI50,SK-OV-3 [5]; read-out: GI50,3.72 µM
same,CC50,SK-OV-3 [5]; [7],> 100 µM
same,TGI,SK-OV-3 [5]; read-out: TGI,> 100 µM
same,GI50,SK-OV-3 [5]; read-out: pGI50 (converted),3.72 µM
same,CC50,SK-OV-3 [5]; [8],> 100 µM
same,TGI,SK-OV-3 [5]; read-out: pTGI (converted),> 100 µM
same,Activity,HL-60,Active
same,growth at 0.01 µM,UACC-257,94%
same,growth at 0.01 µM,SW-620,97%
same,growth at 0.01 µM,SF-295 [6],95%
same,growth at 0.01 µM,MDA-MB-231,101%
same,growth at 100 µM,RPMI-8226,6%
same,growth at 0.1 µM,OVCAR-3,97%
same,growth at 0.1 µM,SNB-75,78%
same,GI50,DU-145; read-out: GI50,3.57 µM
same,CC50,DU-145; [7],> 100 µM
same,TGI,DU-145; read-out: TGI,> 100 µM
same,GI50,DU-145; read-out: pGI50 (converted),3.55 µM
same,CC50,DU-145; [8],> 100 µM
same,TGI,DU-145; read-out: pTGI (converted),> 100 µM
same,IC50,Histone deacetylase 3,0.032 µM
same,growth at 1 µM,T47D,89%
CCS/C(Nc1ccccc1)=C(\C#N)C(=O)Nc1ccc(OC)cc1,growth at 10 µM,HCT-15,16%
same,growth at 0.1 µM,K562,88%
same,growth at 0.01 µM,OVCAR-4,104%
same,GI50,OVCAR-8; read-out: GI50,4.37 µM
same,CC50,OVCAR-8; [7],> 100 µM
same,TGI,OVCAR-8; read-out: TGI,> 100 µM
same,GI50,OVCAR-8; read-out: pGI50 (converted),4.37 µM
same,CC50,OVCAR-8; [8],> 100 µM
same,TGI,OVCAR-8; read-out: pTGI,> 100 µM
same,growth at 0.01 µM,SK-MEL-28,101%
same,growth at 10 µM,SK-OV-3 [1],10%
same,growth at 0.1 µM,KM12 [2],98%
same,growth at 0.01 µM,SN12C,97%
same,GI50,SF-295 [3]; read-out: GI50,3.06 µM
same,CC50,SF-295 [3]; [7],> 100 µM
same,TGI,SF-295 [3]; read-out: TGI,> 100 µM
same,GI50,SF-295 [3]; read-out: pGI50 (converted),3.09 µM
same,CC50,SF-295 [3]; [8],> 100 µM
same,TGI,SF-295 [3]; read-out: pTGI,> 100 µM
same,growth at 0.01 µM,HOP-62,92%
same,GI50,NCI-H460; read-out: GI50,3.14 µM
same,LC50,NCI-H460; read-out: LC50,> 100 µM
same,TGI,NCI-H460; read-out: TGI,34.2 µM
same,GI50,NCI-H460; read-out: pGI50 (converted),3.16 µM
same,LC50,NCI-H460; read-out: pLC50 (converted),> 100 µM
same,TGI,NCI-H460; read-out: pTGI (converted),33.9 µM
same,growth at 1 µM,U-251,94%
same,growth at 10 µM,KM12 [4],28%
same,GI50,UACC-62; read-out: GI50,2.58 µM
same,CC50,UACC-62; [7],> 100 µM
same,TGI,UACC-62; read-out: TGI,> 100 µM
same,GI50,UACC-62; read-out: pGI50 (converted),2.57 µM
same,CC50,UACC-62; [8],> 100 µM
same,TGI,UACC-62; read-out: pTGI,> 100 µM
same,growth at 100 µM,HT-29,-8%
same,growth at 10 µM,EKVX,31%
same,IC50,Histone deacetylase 2,0.032 µM
same,growth at 1 µM,CAKI-1,73%
same,GI50,SK-OV-3 [5]; read-out: GI50,3.28 µM
same,CC50,SK-OV-3 [5]; [7],> 100 µM
same,TGI,SK-OV-3 [5]; read-out: TGI,50.2 µM
same,GI50,SK-OV-3 [5]; read-out: pGI50 (converted),3.31 µM
same,CC50,SK-OV-3 [5]; [8],> 100 µM
same,TGI,SK-OV-3 [5]; read-out: pTGI (converted),50.1 µM
same,Activity,HL-60,Active
same,growth at 0.01 µM,UACC-257,101%
same,growth at 0.01 µM,SW-620,97%
same,growth at 0.01 µM,SF-295 [6],94%
same,growth at 0.01 µM,MDA-MB-231,104%
same,growth at 100 µM,RPMI-8226,5%
same,growth at 0.1 µM,OVCAR-3,97%
same,growth at 0.1 µM,SNB-75,84%
same,GI50,DU-145; read-out: GI50,3.48 µM
same,CC50,DU-145; [7],> 100 µM
same,TGI,DU-145; read-out: TGI,49.8 µM
same,GI50,DU-145; read-out: pGI50 (converted),3.47 µM
same,CC50,DU-145; [8],> 100 µM
same,TGI,DU-145; read-out: pTGI (converted),50.1 µM
same,IC50,Histone deacetylase 3,0.064 µM
same,growth at 1 µM,T47D,88%
